This note sets out measurements from ChEMBL document CHEMBL3627710, “Mitochondrial targeted β-lapachone induces mitochondrial dysfunction and catastrophic vacuolization in cancer cells” (Bioorg Med Chem Lett, 2015).

The test system of data set [1] is A549. Nature of the data set: Induction of apoptosis in human A549 cells assessed as necrotic cells by annexin-V/PI staining analysis (reference value: 0.3%). The data set is classed as functional.
The nature of data set [2]: Cytotoxicity against human IMR90 cells assessed as slight decrease in cell viability at 10 uM for 4 hrs measured after 3 days by Celltiter-Blue assay. The data set is classed as cell-based. Conditions: imr-90, 10 µM.
Data set [3] has as its system A549. Nature of the data set: Cytotoxicity against human A549 cells assessed as decrease in cell viability after 24 hrs by Celltiter-Blue assay. In kind it is functional, cell-based.
For data set [4], the system named is A549. Nature of the data set: Induction of ROS generation in human A549 cells at 6 uM for 16 hrs by DCF dye based flow cytometry. In kind it is functional, cell-based.
The subject of data set [5] is WM983B. Nature of the data set: Cytotoxicity against human WM983B cells assessed as decrease in cell viability at 2 to 10 uM after 24 hrs by Celltiter-Blue assay. The data set is classed as functional, cell-based.
In data set [6] the test system is A549. Nature of the data set: Induction of apoptosis in human A549 cells assessed as early apoptotic cells by annexin-V/PI staining analysis (reference value: 1.1%). In kind it is functional.
Data set [7] concerns A549. Nature of the data set: Cytotoxicity against human A549 cells assessed as decrease in cell viability at 10 uM for 4 hrs measured after 3 days by Celltiter-Blue assay. In kind it is functional, cell-based.
For data set [8], the system named is A549. Nature of the data set: Induction of apoptosis in human A549 cells assessed as viable cells by annexin-V/PI staining analysis (reference value: 97.6%). The data set is classed as functional.
In data set [9] the test system is MDA-MB-231. Nature of the data set: Cytotoxicity against human MDA-MB-231 cells assessed as decrease in cell viability at 2 to 10 uM after 24 hrs by Celltiter-Blue assay. In kind it is functional, cell-based.
Data set [10] deals with A549. Nature of the data set: Effect on oligomycin-induced inhibition of mitochondrial respiration in human A549 cells assessed as oxygen consumption rate by extracellular flux analyzer. In kind it is functional, cell-based.
Data set [11] deals with A549. Nature of the data set: Effect on mitochondrial morphology in human A549 cells assessed as vacuoles formation by electron microscopy. The data set is classed as functional, cell-based.
Data set [12] concerns A549. Nature of the data set: Cytotoxicity against human A549 cells assessed as vacuoles formation at 6 uM after 20 hrs by phase contrast microscopy. In kind it is functional, cell-based.
Data set [13] relates to A549. Nature of the data set: Induction of ROS generation in human A549 cells at 6 uM for 16 hrs by MitoSox dye based flow cytometry. The data set is classed as functional, cell-based.
Data set [14] has as its system A549. Nature of the data set: Induction of apoptosis in human A549 cells assessed as late apoptotic cells by annexin-V/PI staining analysis (reference value: 1.0%). In kind it is functional.
The test system of data set [15] is A549. Nature of the data set: Induction of autophagy in human A549 cells assessed as increase in LC3-2 expression by western blot analysis. In kind it is functional, cell-based.
The subject of data set [16] is A549. Nature of the data set: Effect on mitochondrial morphology in human A549 cells assessed as onion skin-like structures of mitochondria by electron microscopy. The data set is classed as functional, cell-based.
The subject of data set [17] is PEO1. Nature of the data set: Cytotoxicity against human PEO1 cells assessed as decrease in cell viability at 2 to 10 uM after 24 hrs by Celltiter-Blue assay. The data set is classed as functional, cell-based.

Structures are written as SMILES. Activity calls are given as the source filed them. The calls are words filed in the database; no cut-off is given here.

Turning to `CC(C)C[C@@H](/C=C/[C@H](Cc1ccccc1)C(=O)N1CCC[C@H]1C(=O)N[C@H](C(=O)N[C@@H](CCCNC(=O)OCc1ccccc1)C(=O)NCCC(=O)OC1CC2=C(OC1(C)C)c1ccccc1C(=O)C2=O)C(C)C)NC(=O)OC(C)(C)C` (stereo not given in full), the Activity in [1] is on record as 3.7%; in data set [2], “Toxic”; in data set [6] it was 3.9%; in [8], 60.9%; in data set [14], 31.5%. In addition, the inhibition result in [3] is “Dose-dependent effect”. For the same compound, the result in data set [4], in [11], in data set [12], in [13], in data set [15] and in data set [16] was Active. The inhibition entry in [5], in data set [7], in [9] and in data set [17] was “Active” in each case. For the same compound, the outcome in data set [10] was inactive.

Consider `CC1(C)OC2=C(CC1O)C(=O)C(=O)c1ccccc12` (stereo not given), for which the Activity in [1] came out at 1.1%; in [6], 4%; in data set [8] it was 89.2%; in [14] it was 5.7%. In data set [3], the inhibition entry was “Dose-dependent effect”. The outcome in data set [10] was Active. Also, the result in [12] and in data set [15] was inactive.
